Reference: patent US11667630B2, “Nitrogen-containing 6-membered cyclic compound” (Asahi Kasei Pharma Corporation, priority 2017, dated 2023)

Legend:
human EP4 receptor = human EP4 receptor (Homo sapiens, UniProt P35408); assay: Measurement of EP4 agonist activity (cAMP production); format: cell-based; set-up: expressed in transfected cells; host or cells: HEK293; conditions: cAMP production in HEK293 cells stably expressing human EP4 receptor; average values where measured two or more times
Protocol: In order to investigate EP4 receptor agonist activity of the compounds of the present invention, production of cAMP was measured in HEK293 cells that were made to stably express the human EP4 receptor.
By using Refseq Database, prostaglandin E receptor was searched for. As a result, gene information of human EP4 (NM_000958) receptor was obtained. On the basis of this sequence information, the human EP4 receptor gene was cloned by PCR in a conventional manner using human cDNA as the template, and HEK293 cells that were made to stably express the human EP4 receptor were established. When cryopreserved cells of this strain were thawed and used, cells subcultured three times or more within a certain period of time (about 1 to 2 weeks) by using Dulbecco's Modified Eagle's Medium (Dulbecco's Modified Eagle's Medium may be henceforth abbreviated as DMEM) containing 10% FBS, 50 units each of penicillin and streptomycin were used. The subcultured cells were inoculated in wells of a poly-D-lysine-coated 96-well plate at a density of 2×10^4 to 2.5×10^4 cells/well, and cultured for one day. The medium in the wells was removed by suction, then DMEM (80 μL) was added to each well, and incubation was performed at 37° C. for 15 minutes. […] The reaction was allowed at 37° C. for 30 minutes, then the medium was removed by suction, Assay/Lysis Buffer (100 μL) contained in cAMP Screen Kit (produced by Applied Biosystems) was added to terminate the reaction. Then, the reaction mixture was incubated at 37° C. for 30 minutes to prepare a sample for quantification of cAMP, and the amount of cAMP in the sample was quantified according to the method indicated in cAMP Screen Kit. By non-linear regression of the compound concentration and the amount of cAMP, the concentration of the compound required for increasing cAMP to 50% of the maximum increase (EC50 value) was calculated by using the Kaleida Graph.

human EP3 receptor = biological target: T1, human EP3 receptor (Homo sapiens, UniProt P43115); assay: Receptor binding test, [3H]PGE2 binding inhibition, EP3; conditions: [3H]PGE2 1.54 nmol/L, membrane fraction HTS092M, 25°C 60 minutes
T1 construct: purchased Merck Millipore HTS092M
T1 sequence (P43115 1-390): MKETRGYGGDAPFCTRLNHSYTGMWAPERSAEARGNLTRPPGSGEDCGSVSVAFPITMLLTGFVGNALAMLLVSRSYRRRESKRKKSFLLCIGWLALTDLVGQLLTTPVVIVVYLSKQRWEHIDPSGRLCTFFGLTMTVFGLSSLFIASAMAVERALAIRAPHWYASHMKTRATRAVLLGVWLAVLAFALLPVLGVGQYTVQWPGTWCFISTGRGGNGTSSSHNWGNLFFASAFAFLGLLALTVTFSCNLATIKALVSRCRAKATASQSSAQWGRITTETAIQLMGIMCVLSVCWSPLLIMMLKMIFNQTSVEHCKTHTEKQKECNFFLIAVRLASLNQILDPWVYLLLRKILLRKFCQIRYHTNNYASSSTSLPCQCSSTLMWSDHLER
Protocol: (§1) In order to evaluate selectivity to each EP receptor subtype, [^3H]PGE2 binding-inhibition activities of test compounds for cell membranes on which human EP2, human EP3, and human EP4 receptors were stably expressed were measured.
(§2) As the membrane fractions of the prostaglandin E receptors EP2, EP3, and EP4, 10.0 μg protein/tube each of HTS185M, HTS092M, and HTS142M of Merck Millipore were used, respectively. Each membrane fraction was incubated with a reaction mixture (250 μL/tube) containing a test compound and [3H]PGE2 at 25° C. for 60 minutes. […] After the reaction, the membrane fraction was collected on filter paper by using a cell harvester, the filter paper was transferred to a measurement vial, and the measurement was performed on a liquid scintillation counter.
(§3) The nonspecific binding was determined as binding observed in the presence of excess amount (10 μM) of unlabeled PGE2. The measurement of the [3H]PGE2 binding-inhibiting activity of a test compound was performed by adding the test compound at various concentrations. The following buffers were used for the reaction.
Buffer for EP3: 50 mmol/L Tris-HCl buffer containing 10 mmol/L MgCl2, and 1 mmol/L EDTA

human EP2 receptor = biological target: T2, human EP2 receptor (Homo sapiens, UniProt P43116); assay: Receptor binding test, [3H]PGE2 binding inhibition, EP2; conditions: [3H]PGE2 2.56 nmol/L, membrane fraction HTS185M, 25°C 60 minutes
T2 construct: purchased Merck Millipore HTS185M
Protocol: as §1, §2, §3
Buffer for EP2: 50 mmol/L HEPES-NaOH (pH 7.4) containing 5 mmol/L MgCl2, 1 mmol/L CaCl2), and 0.2% BSA

dog femur = assay: Neo-osteogenesis action in dog femur; format: in vivo; conditions: beagle dogs, four weeks
Protocol: In order to investigate an osteogenesis-promoting action of the compounds of the present invention, for influence of administration of microspheres containing a test compound in the vicinity of the femur of dog, osteogenesis-promoting action was evaluated by measuring new bone formed after the administration.
Nine to eleven months old female beagle dogs ([…] LABES) were anesthetized by administration of a 1:1 mixture of ketamine hydrochloride (Ketalar 500 mg, Daiichi Sankyo Propharma Co., Ltd.) and xylazine (Selactar 2% Injection, Bayer Yakuhin, Ltd.) at a dose of about 0.5 mL/kg, and isoflurane listed in Japanese Pharmacopoeia (Elucaine, Mylan Pharmaceutical) was used for maintenance anesthesia, which was administered with an inhaler IMPAC6 (VetEquip Inc.). After hair of the femoral region of the right hind leg was shaved, and disinfection treatment was performed, 350 μL of a microsphere suspension obtained by suspending microspheres (prepared according to the method of Preparation Example 1 or 2) containing a test compound (compound of Example 23) in a CMC solution was transdermally administered around the periosteum of the femoral diaphysis by using a 1-mL injection syringe and a 21G injection needle. The doses of the test compound were 0.01, 0.1, 1.0, 10, and 100 μg/site, and the aforementioned microspheres were used in an amount corresponding to each dose. As a control group, a drug liquid obtained by suspending the microspheres not containing the test compound in 350 μL of the CMC solution alone was administered. Four weeks after the administration of the drug liquid, the animals were euthanized by bleeding under pentobarbital sodium (Somnopentyl) anesthesia. The femurs of both sides were extracted, immersed in a 10% neutral buffered formalin solution, and stored. The bone mineral content of the femur was measured by using Discovery X-ray bone density analyzer (produced by Toyo Medic). The test was performed with the groups each consisting of 4 dogs

Sequence of human EP4 receptor (P35408 whole entry): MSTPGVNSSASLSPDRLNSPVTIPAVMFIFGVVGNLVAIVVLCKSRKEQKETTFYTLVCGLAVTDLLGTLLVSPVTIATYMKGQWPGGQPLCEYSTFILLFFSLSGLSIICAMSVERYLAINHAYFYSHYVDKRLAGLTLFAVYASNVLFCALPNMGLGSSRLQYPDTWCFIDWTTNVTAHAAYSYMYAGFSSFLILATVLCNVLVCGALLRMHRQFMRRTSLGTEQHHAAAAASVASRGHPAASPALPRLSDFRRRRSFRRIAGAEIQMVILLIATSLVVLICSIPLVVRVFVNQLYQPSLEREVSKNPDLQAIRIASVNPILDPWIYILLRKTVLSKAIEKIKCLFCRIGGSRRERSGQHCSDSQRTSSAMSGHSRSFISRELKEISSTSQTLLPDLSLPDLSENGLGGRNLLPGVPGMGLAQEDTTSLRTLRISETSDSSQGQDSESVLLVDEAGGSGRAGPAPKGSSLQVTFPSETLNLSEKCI
T2 sequence (P43116 whole entry): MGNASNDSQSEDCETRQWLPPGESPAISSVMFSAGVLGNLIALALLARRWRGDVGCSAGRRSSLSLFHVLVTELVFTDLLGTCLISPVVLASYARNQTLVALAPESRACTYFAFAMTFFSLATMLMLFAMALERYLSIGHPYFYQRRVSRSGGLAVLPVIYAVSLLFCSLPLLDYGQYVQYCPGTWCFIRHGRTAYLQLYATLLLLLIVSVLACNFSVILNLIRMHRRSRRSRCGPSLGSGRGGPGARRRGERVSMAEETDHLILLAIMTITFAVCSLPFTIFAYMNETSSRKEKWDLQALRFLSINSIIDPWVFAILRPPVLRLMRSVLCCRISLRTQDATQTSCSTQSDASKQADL

SMILES: O=C(O)c1ccc(CCN2C(=O)SCCN2CC[C@@H](O)Cc2cccc(C#Cc3ccsc3)c2)s1 [Example 23, (S)-5-(2-(4-(3-Hydroxy-4-(3-(thiophen-3-ylethynyl)phenyl)butyl)-2-oxo-1,3,4-thiadiazinan-3-yl)ethyl)thiophene-2-carboxylic acid]
- EC50 (human EP4 receptor): 0.033 nM
- IC50 (human EP3 receptor): > 1000 nM
- IC50 (human EP2 receptor): > 1000 nM
- Bone mineral content of femur 1/3 center region (g) Left femur (no administration of compound) (dog femur; microspheres containing compound of Example 23, 0.01 μg/site at right femur): 2.9 ± 0.4 g
- Bone mineral content of femur 1/3 center region (g) Right femur (administered with compound) (dog femur; microspheres containing compound of Example 23, 0.01 μg/site): 2.9 ± 0.4 g
- Bone mineral content of femur 1/3 center region (g) Left femur (no administration of compound) (dog femur; microspheres containing compound of Example 23, 0.1 μg/site at right femur): 2.6 ± 0.1 g
- Bone mineral content of femur 1/3 center region (g) Right femur (administered with compound) (dog femur; microspheres containing compound of Example 23, 0.1 μg/site): 2.7 ± 0.2 g
- Bone mineral content of femur 1/3 center region (g) Left femur (no administration of compound) (dog femur; microspheres containing compound of Example 23, 1.0 μg/site at right femur): 3.0 ± 0.1 g
- Bone mineral content of femur 1/3 center region (g) Right femur (administered with compound) (dog femur; microspheres containing compound of Example 23, 1.0 μg/site): 4.1 ± 0.4 g
- Bone mineral content of femur 1/3 center region (g) Left femur (no administration of compound) (dog femur; microspheres containing compound of Example 23, 10 μg/site at right femur): 2.8 ± 0.3 g
- Bone mineral content of femur 1/3 center region (g) Right femur (administered with compound) (dog femur; microspheres containing compound of Example 23, 10 μg/site): 6.4 ± 0.7 g
- Bone mineral content of femur 1/3 center region (g) Left femur (no administration of compound) (dog femur; microspheres containing compound of Example 23, 100 μg/site at right femur): 2.7 ± 0.4 g
- Bone mineral content of femur 1/3 center region (g) Right femur (administered with compound) (dog femur; microspheres containing compound of Example 23, 100 μg/site): 8.2 ± 1.1 g
